Assay results reported in patent US9994533B2, “Method of preparing ATG's analogue, and the application of ATG and it's analogue” (Longhua Hospital Shanghai University of Traditional Chinese …, priority 2016, dated 2018).

Molecular target: T1, PP2A (Homo sapiens, UniProt P62714)
T1 construct: endogenous in cells; host or cells: 293T
Test: PP2A activity in 293T cells stimulated with ATG analogues
Format: cell-based
Details: 10 μM, DMSO as reference, FIG. 11
Description: The biological activities of the three compounds were determined by measuring the downstream PP2A activity and the degree of phosphorylation of NF-kB. […] The concentrations of ATG and the three new compounds were 10 μM.

T1 sequence (P62714 whole entry): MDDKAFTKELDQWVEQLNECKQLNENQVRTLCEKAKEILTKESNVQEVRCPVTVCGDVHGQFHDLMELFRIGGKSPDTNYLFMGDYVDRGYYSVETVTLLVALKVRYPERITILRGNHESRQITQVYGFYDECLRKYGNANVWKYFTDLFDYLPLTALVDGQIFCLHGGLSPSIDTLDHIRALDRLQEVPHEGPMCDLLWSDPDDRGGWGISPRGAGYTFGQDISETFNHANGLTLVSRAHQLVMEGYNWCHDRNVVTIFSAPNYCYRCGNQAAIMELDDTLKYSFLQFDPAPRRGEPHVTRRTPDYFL

“Potassium trifluoro (4-(5-(3,4,5-trimethoxyphenyl)-1,2,4-oxadiazol-3-yl) phenyl) borate [BT282]” was tested, and the “effect on PP2A activity relative to native ATG” value was “higher activity to PP2A than natural ATG”.
